In patent US11179368B2, “Substituted indoline derivatives as dengue viral replication inhibitors” (JANSSEN PHARMACEUTICALS, INC., priority 2017, dated 2021):
Counter-ions that a name gives are not always drawn. Like-named read-outs stand apart in the source and are kept apart here.

Key:
[1] = tested on: DENV-1 strain TC974#666; experiment: Tetravalent RT-qPCR assay, serotype 1; type: cell-based, Dengue virus; conditions: for EC50: Dengue virus, DENV1, 72 h, RT-qPCR serotype 1 TC974#666, Vero cells, day 3; for SI: RT-qPCR serotype 1 TC974#666
Experimental: (§1) The antiviral activity of the compounds of the invention was tested against DENV-1 strain TC974#666 (NCPV), DENV-2 strain 16681, DENV-3 strain H87 (NCPV) and DENV-4 strain H241 (NCPV) in a RT-qPCR assay. Therefore, Vero cells were infected with either DENV-1, or -2, or -3, or -4 in the presence or absence of test compounds. At day 3 post-infection, the cells were lysed and cell lysates were used to prepare cDNA of both a viral target (the 3′UTR of DENV; Table 2) and a cellular reference gene (1-actin, Table 2). Subsequently, a duplex real time PCR was performed on a Lightcycler480 instrument. The generated Cp value is inversely proportional to the amount of RNA expression of these targets. Inhibition of DENV replication by a test compound results in a shift of Cp's for the 3′UTR gene. On the other hand, if a test compound is toxic to the cells, a similar effect on β-actin expression will be observed. The comparative ΔΔCp method is used to calculate EC50, which is based on the relative gene expression of the target gene (3′UTR) normalized with the cellular housekeeping gene (β-actin). In addition, CC50 values are determined based on the Cp values acquired for the housekeeping gene β-actin.
(§2) The culture medium consisted of minimal essential medium supplemented with 2% of heat-inactivated fetal calf serum, 0.04% gentamycin (50 mg/mL) and 2 mM of L-glutamine. Vero cells, obtained from ECACC, were suspended in culture medium and 75 μL/well was added in 96-well plates (10000 cells/well), which already contain the antiviral compounds. […] In addition, each plate contains wells which are assigned as virus controls (containing cells and virus in the absence of compound) and cell controls (containing cells in the absence of virus and compound). Once the cells were added in the plates, the plates were incubated in a fully humidified incubator (37° C., 5% CO2) until the next day. Dengue viruses serotype-1, 2, 3 and 4 were diluted in order to obtain a Cp of ˜22-24 in the assay. Therefore, 25 μL of virus suspension was added to all the wells containing test compound and to the wells assigned as virus control. In parallel, 25 μL of culture medium was added to the cell controls. Next, the plates were incubated for 3 days in a fully humidified incubator (37° C., 5% CO2). After 3 days, the supernatant was removed from the wells and the cells were washed twice with ice-cold PBS (˜100 μL). The cell pellets within the 96-well plates were stored at −80° C. for at least 1 day. Next, RNA was extracted using the Cells-to-CT™ lysis kit, according to the manufacturer's guideline (Life Technologies). The cell lysates can be stored at −80° C. or immediately used in the reverse transcription step.
(§3) In preparation of the reverse transcription step, mix A (table 3A) was prepared and 7.57 μL/well was dispensed in a 96-well plate. After addition of 5 μL of the cell lysates, a five minute denaturation step at 75° C. was performed (table 3B). Afterwards, 7.43 μL of mix B was added (table 3C) and the reverse transcription step was initiated (table 3D) to generate cDNA.
(§4) Finally, a RT-qPCR mix was prepared, mix C (table 4A), and 22.02 μL/well was dispensed in 96-well LightCycler qPCR plates to which 3 μL of cDNA was added and the qPCR was performed according to the conditions in table 4B on a LightCycler 480.
(§5) Using the LightCycler software and an in-house LIMS system, dose response curves for each compound were calculated and the half maximal effective concentration (EC50) and the half maximal cytotoxic concentration (CC50) were determined (Tables 5-8).

[2] = in vitro; type: cell-based; conditions: African green monkey, CC50
Experimental: as §1, §2, §3, §4, §5

[3] = tested on: DENV-3 strain H87; experiment: Tetravalent RT-qPCR assay, serotype 3; type: cell-based, Dengue virus; conditions: for EC50: Dengue virus, DENV3, 72 h, RT-qPCR serotype 3 H87, Vero cells, day 3; for SI: RT-qPCR serotype 3 H87
Experimental: as §1, §2, §3, §4, §5

[4] = tested on: DENV-2 strain 16681; experiment: Tetravalent RT-qPCR assay, serotype 2; type: cell-based, Dengue virus; conditions: for EC50: Dengue virus, DENV2, 72 h, RT-qPCR serotype 2 16681, Vero cells, day 3; for SI: RT-qPCR serotype 2 16681
Experimental: as §1, §2, §3, §4, §5

[5] = tested on: Vero cells; conditions: African green monkey
[6] = tested on: DENV-2 16681 strain; experiment: DENV-2 antiviral assay (eGFP-labeled virus in Vero cells); type: cell-based, Dengue virus; conditions: for EC50: DENV-2 16681 eGFP, Vero cells, MOI 0.5, 3 days; for SI: SI=CC50/EC50, DENV-2 antiviral assay
[7] = tested on: DENV-4 strain H241; experiment: Tetravalent RT-qPCR assay, serotype 4; type: cell-based, Dengue virus; conditions: for EC50: Dengue virus; for SI: RT-qPCR serotype 4 H241
Experimental: as §1, §2, §3, §4, §5

[8] = in vitro; conditions: African green monkey
[9] = tested on: Vero cells; experiment: in vitro; type: cell-based; conditions: African green monkey, 3 days
Experimental: as §1, §2, §3, §4, §5

[10] = DENV4, 72 h, RT-qPCR serotype 4 H241, Vero cells, day 3, read-out: EC50

| Compound | EC50 [1] [nM] | SI [1] | CC50 at 3 days [2] [nM] | EC50 [3] [nM] | SI [3] | EC50 [4] [nM] | SI [4] | CC50 [5] [nM] | EC50 [6] [nM] | SI [6] | EC50 [7, 10] [nM] | SI [7] | CC50 [8] [nM] | CC50 [9] [nM] | EC50 ([7]; DENV4, Vero, 72 h) [nM] | melting point [°C] |
| --- | --- | --- | --- | --- | --- | --- | --- | --- | --- | --- | --- | --- | --- | --- | --- | --- |
| COc1cc(NC(C(=O)N2CCc3ccc(OC(F)(F)F)cc32)c2ccc(F)cc2OCCO)cc(S(C)(=O)=O)c1 (single isomer, unassigned) [Compound 3B] | 1.1 | >3640 | > 2500 | 13 | >444 | 0.9 | 4760 | 8700 | 0.61 | 16300 | 72 | >32 | – | – | – | – |
| COc1cc(NC(C(=O)N2CCc3cc(OC)c(C(F)(F)F)cc32)c2ccc(Cl)cc2OCCCC(=O)O)cc(S(C)(=O)=O)c1 (single isomer, unassigned) [Compound 8B] | 1.2 | 10500 | – | 19 | 796 | 0.3 | 54300 | 14000 | 1.2 | 6780 | 84 | 88 | – | – | – | – |
| COc1cc(NC(C(=O)N2CCc3ccc(OC(F)(F)F)cc32)c2ccc(Cl)cc2OCCO)cc(S(C)(=O)=O)c1 (single isomer, unassigned) [Compound 6A] | 0.16 | >41300 | > 2500 | 2.6 | >1480 | 0.16 | >12600 | – | 0.23 | >12000 | 26 | 119 | 7300 | – | – | – |
| COc1cc(NC(C(=O)N2CCc3ccc(C(F)(F)F)cc32)c2ccc(Cl)cc2OCCCC(=O)O)cc(S(C)(=O)=O)c1 (single isomer, unassigned) [Compound 7B] | 0.13 | >19200 | > 2500 | 5.2 | >473 | 0.19 | >13500 | 11000 | 0.25 | 90600 | 24 | >186 | – | > 2500 | – | – |
| COc1cc(NC(C(=O)N2CCc3cc(OC)c(C(F)(F)F)cc32)c2ccc(Cl)cc2OCCO)cc(S(C)(=O)=O)c1 (single isomer, unassigned) [Compound 5B] | 0.94 | 8640 | – | 6.7 | >752 | 0.24 | >17100 | 8500 | 0.23 | >16800 | 26 | 86 | – | – | – | – |
| COc1cc(NC(C(=O)N2CCc3ccc(C(F)(F)F)cc32)c2ccc(Cl)cc2OCCO)cc(S(C)(=O)=O)c1 (single isomer, unassigned) [Compound 4A] | 0.75 | >5470 | > 2500 | 13 | >234 | 0.45 | 11700 | – | 0.41 | 15000 | 44 | 69 | 6000 | – | – | – |
| COc1cc(NC(C(=O)N2CCc3ccc(OC(F)(F)F)cc32)c2ccc(Cl)cc2OCCCC(=O)O)cc(S(C)(=O)=O)c1 (single isomer, unassigned) [Compound 9B] | 0.1 | >45500 | > 2500 | 1.7 | >1840 | 0.068 | >56500 | 13000 | 0.15 | 83000 | 7.2 | 1390 | – | – | – | – |
| COc1cc(NC(C(=O)N2CCc3ccc(C(F)(F)F)cc32)c2ccc(F)cc2OCCO)cc(S(C)(=O)=O)c1 (single isomer, unassigned) [Compound 1B] | 1.5 | >2860 | > 2500 | 20 | >127 | 1.1 | 4670 | 3400 | 1.4 | >1980 | – | 23 | – | – | 130 | – |
| COc1cc(NC(C(=O)N2CCc3ccc(OC(F)(F)F)cc32)c2ccc(Cl)cc2OCCCC(=O)O)cc(S(C)(=O)=O)c1 (racemic) (as salt: HCl) (hydrate or solvate) [Compound 9, 4-(5-chloro-2-(1-((3-methoxy-5-(methylsulfonyl)phenyl)amino)-2-oxo-2-(6-(trifluoromethoxy)indolin-1-yl)ethyl)phenoxy)butanoic acid] | – | – | – | – | – | – | – | – | – | – | – | – | – | – | – | 155 |
